For one compound, IC50 and EC50 results are on record in US20030187261A1, “Purine derivatives, process for their preparation and use thereof” (priority 2000, published 2003).

SMILES strings stand for the structures.

Assay [1] has as its system T-lymphoblastic leukemia cell line CEM. Put plainly: MTT cytotoxicity assay, CEM. Format: cell-based, human. The conditions noted are these: Homo sapiens, 72 hours (TCS50 in the method). In a few lines:
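Cells pre-incubated 24 h, then exposed to six 4-fold dilutions (top well concentration typically 266.7 μM) in duplicate for 72 h at 37 °C, 5% CO2. MTT read-out, SDS-solubilized formazan measured at 540 nm. TCS50, the concentration lethal to 50% of tumour cells, derived from dose-response curves.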

The subject of a further assay is normal human lymphocytes. Put plainly: concanavalin A induced lymphocyte proliferation, [3H]-TdR incorporation. Format: cell-based. The conditions noted are these: Homo sapiens, Lymphocyte, 72 hours, read-out: ED50 (the source's name). In a few lines: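 Ficoll-isolated human peripheral blood mononuclear cells, stimulated with concanavalin A, exposed to six 4-fold compound dilutions (top well concentration 266.7 μM) for 72 h at 37 °C. Proliferation read as [3H]-TdR incorporation over 6 h by scintillation counting; ED50 taken from dose-response curves relative to control cpm.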

Usually IC50 stands for the point on the concentration scale where inhibition reaches its midpoint. Read a high IC50 as a need for much substance. Compound `CCCCCCNc1nc(NC(CO)c2ccccc2)c2ncn(C(C)C)c2n1` (centres unmarked) [P23, 2-(hexylamino)-6-(1-phenyl-2-hydroxyethylamino)-9-isopropylpurine] yielded a half-inhibitory concentration (IC50) in assay [1] of 34 µM. Also, in the assay on normal human lymphocytes, the EC50 came out at 56 µM.
